According to patent US9676997B2, “Compositions and methods for stabilizing luminogenic substrates” (Promega Corporation, priority 2014, dated 2017):

Test: Stability of 1.25 mM coelenterazine in 50% ethanol and 50% propylene glycol with or without 225 mM ATT, HPLC and Arrhenius plots
Format: physicochemical
Conditions: 225 mM ATT, over time at different temperatures
Procedure: The stability of coelenterazine in the presence and absence of ATT was measured over time at different temperatures. Specifically, 1.25 mM coelenterazine was present in a solution of 50% ethanol and 50% propylene glycol (i.e., the solution without ATT) or a solution of 50% ethanol and 50% propylene glycol with 225 mM ATT (i.e., the solution with ATT). These two solutions were incubated at −20° C., room temperature (RT), 40° C., or 60° C. and analyzed at 0 days, 1 day, 3 days, 7 days, 15 days, and 30 days.
Following incubation, high performance liquid chromatography (HPLC) was utilized to identify the components of the respective solutions at each time point. Specifically, an Agilent 1100 HPLC instrument was used and equipped with a quaternary pump, thermostatted autosampler and column compartment, and a G1311B diode-array detector. The column used was a Synergi-MAX-RP (Phenomenex, Torrance, Calif.) 100 AÅ 50×4.6 2.5 μm. The run on the HPLC was a gradient run with 0.1% TFA in water and acetonitrile. Absorbance was measured at 262 nanometers (nm). Standards of coelenterazine and its known degradants were run to confirm both the retention time and absorbance trace. 5 μl of each solution was injected and the retention time of coelenterazine was 3.9 minutes at room temperature.
The results of the HPLC analysis are shown below in Tables 1 and 2 and FIGS. 1A and 1B, in which the values are reported as relative peak area percentage at 262 nm (i.e., the lamba max of the substrate). […] In each of FIGS. 1A and 1B, diamond is 1.25 mM coelenterazine incubated over time with or without 225 mM ATT, respectively, at −20° C., triangle is 1.25 mM coelenterazine incubated over time with or without 225 mM ATT, respectively, at room temperature (RT), star is 1.25 mM coelenterazine incubated over time with or without 225 mM ATT, respectively, at 40° C., and cross is 1.25 mM coelenterazine incubated over time with or without 225 mM ATT, respectively, at 60° C.
From the HPLC analysis, the half-life of coelenterazine in the presence of ATT at 40° C. and 60° C. was calculated to be 23 days and 5 days, respectively, while the half-life of coelenterazine in the absence of ATT at 40° C. and 60° C. was calculated to be 9.5 days and 2 days, respectively (see Table 3 below).
Additionally, Arrhenius plots were generated for coelenterazine in the presence and absence of ATT to calculate the half-life of coelenterazine at various temperatures. The Arrhenius equation is as follows: […]
In FIG. 7, the slope was −8636.59, the intercept was 24.1199, and R^2 was 0.9983.
In FIG. 8, the slope was −7382.51, the intercept was 21.2598, and R^2 was 0.9570.

Compound: Cc1n[nH]c(=S)[nH]c1=O [ATT, 6-methyl-3-thioxo-3,4-dihydro-1,2,4-triazin-5(2H)-one]
- stabilization of coelenterazine against decomposition: stabilized coelenterazine against decomposition over time at different temperatures
